Results taken from patent US20180230160A1, “2-AMINO-7A-PHENYL-3,4,4A,5,7,7A-HEXAHYDROFURO[3,4-B]PYRIDINES AS BACE1 INHIBITORS” (H. Lundbeck A/S, priority 2015, published 2018).

How the values were obtained:
P-gp (MDR1) = test: MDCK-MDR1 assay (permeability, efflux ratio); assay type: in vitro ADME; settings: dog, Papp BA/Papp AB, 60-minute incubation
human BACE1 = human BACE1 (Homo sapiens, UniProt P56817); test: BACE1 efficacy assay (FRET-based, commercial BACE1 kit); assay type: biochemical; set-up: purchased Life Technologies P2985; settings: 10 μM test compound
Method: The efficacy assay was performed as a FRET-based assay using a commercially available BACE1 kit (Life Technologies, P2985). 2 μl test compound at 10 μM (final concentration) and 15 μl BACE1 enzyme from the kit (final concentration 3 nM) were preincubated for 15 minutes at room temperature before addition of 15 μl of substrate from the kit (250 nM final concentration) and incubated for additional 90 minutes at room temperature. The assay plate was subsequently read in a Pherastar (Ex540/Em590). The enzyme activity observed in presence of test compound were normalized to the enzyme activity observed in presence of buffer and 10 μM (final concentration) of the high affinity BACE1 reference inhibitor (S)-6-[3-Chloro-5-(5-prop-1-ynyl-pyridin-3-yl)-thiophen-2-yl]-2-imino-3,6-dimethyl-tetrahydropyrimidin-4-one, respectively. The efficacy of the test compounds was evaluated at 10 μM (final concentration) and defined as the percent inhibition of the enzyme activity using the equation % inhibition=100%−normalized enzyme activity in percent.

Chain of human BACE1 (P56817 46-501): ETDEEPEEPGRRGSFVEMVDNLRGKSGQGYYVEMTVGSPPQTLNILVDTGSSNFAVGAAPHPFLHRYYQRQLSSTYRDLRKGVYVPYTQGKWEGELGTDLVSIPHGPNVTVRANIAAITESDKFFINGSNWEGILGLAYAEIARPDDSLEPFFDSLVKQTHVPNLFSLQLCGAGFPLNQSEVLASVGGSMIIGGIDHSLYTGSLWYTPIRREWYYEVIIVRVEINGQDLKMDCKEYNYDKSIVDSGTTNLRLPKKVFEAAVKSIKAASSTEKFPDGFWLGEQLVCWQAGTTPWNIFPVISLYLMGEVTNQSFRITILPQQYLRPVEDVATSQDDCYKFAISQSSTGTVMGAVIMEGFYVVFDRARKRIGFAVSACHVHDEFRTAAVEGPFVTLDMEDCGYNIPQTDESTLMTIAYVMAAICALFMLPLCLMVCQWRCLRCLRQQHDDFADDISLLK

| SMILES | efflux ratio at 60 min, 0.5 μM (P-gp (MDR1)) | inhibition at 10 µM (human BACE1) [%] |
| --- | --- | --- |
| [2H]C([2H])([2H])Oc1ccc(C(=O)Nc2ccc(F)c([C@]34COC[C@H]3C[C@@](F)(CF)C(N)=N4)c2)nc1 [Example 22, N-(3-((3S,4aS,7aS)-2-amino-3-fluoro-3-(fluoromethyl)-3,4,4a,5-tetrahydrofuro[3,4-b]pyridin-7a-yl)-4-fluorophenyl)-5-(methoxy-d3)picolinamide] | 1.85 | 99 |
| COc1cnc(C(=O)Nc2ccc(F)c([C@]34COC[C@@]3(F)C[C@@](C)(F)C(N)=N4)c2)cn1 [Example 7, N-(3-((3R,4aR,7aS)-2-amino-3,4a-difluoro-3-methyl-3,4,4a,5,7,7a-hexahydrofuro[3,4-b]pyridin-7a-yl)-4-fluorophenyl)-5-methoxypyrazine-2-carboxamide] | 0.94 | 104 |
